From ChEMBL document CHEMBL5247641, “Discovery of Potent DYRK2 Inhibitors with High Selectivity, Great Solubility, and Excellent Safety Properties for the Treatment of Prostate Cancer” (J Med Chem, 2023)
Each block holds one compound with its values, some of them ahead of it. The source made the active and inactive calls. No cut-off for these calls is given here.

Tests used:
[1] = biological target: T1, Dual specificity tyrosine-phosphorylation-regulated kinase 2 (Homo sapiens, UniProt Q92630); experiment: Inhibition of hexa His-tagged DYRK2 (72 to 479 residues) (unknown origin) expressed in Escherichia coli BL21 (DE3) assessed as substrate phosphorylation using 4E-BP1 as substrate in presence of [gamma33-P]ATP incubated for 2 hrs by scintillation counter analysis
T1 sequence (Q92630 whole entry): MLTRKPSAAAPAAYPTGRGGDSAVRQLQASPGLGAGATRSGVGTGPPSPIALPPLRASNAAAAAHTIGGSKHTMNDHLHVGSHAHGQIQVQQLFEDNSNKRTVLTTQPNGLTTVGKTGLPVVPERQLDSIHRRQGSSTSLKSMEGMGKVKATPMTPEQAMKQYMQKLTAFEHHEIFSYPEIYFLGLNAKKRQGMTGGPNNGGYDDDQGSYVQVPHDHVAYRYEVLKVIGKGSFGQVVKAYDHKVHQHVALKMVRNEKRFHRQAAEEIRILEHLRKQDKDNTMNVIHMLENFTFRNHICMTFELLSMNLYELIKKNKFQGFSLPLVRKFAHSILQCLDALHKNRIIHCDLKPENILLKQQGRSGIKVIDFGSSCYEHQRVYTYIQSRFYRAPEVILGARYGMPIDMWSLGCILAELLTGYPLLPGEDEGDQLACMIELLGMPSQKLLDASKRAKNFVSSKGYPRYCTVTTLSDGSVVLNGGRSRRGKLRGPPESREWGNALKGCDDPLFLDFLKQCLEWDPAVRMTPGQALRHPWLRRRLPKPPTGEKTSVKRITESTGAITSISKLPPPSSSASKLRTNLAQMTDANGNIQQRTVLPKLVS

[2] = system: CWR22R; experiment: Induction of cell cycle arrest in human 22Rv1 cells assessed as accumulation of cells at G2 phase at 40 uM incubated for 24 hrs by propidium iodide based flow cytometric analysis (Rvb=24.21 %); type: functional
[3] = system: DU-145; experiment: Induction of cell cycle arrest in human DU-145 cells assessed as accumulation of cells at G1 phase at 40 uM incubated for 24 hrs by propidium iodide based flow cytometric analysis (Rvb= 53.46%); type: functional
[4] = system: CWR22R; experiment: Induction of cell cycle arrest in human 22Rv1 cells assessed as accumulation of cells at S phase at 40 uM incubated for 24 hrs by propidium iodide based flow cytometric analysis (Rvb=20.51 %); type: functional
[5] = system: CWR22R; experiment: Induction of apoptosis in human 22Rv1 cells assessed as apoptotis rate at 40 uM incubated for 24 hrs by Annexin V-FITC and PI staining based flow cytometry (Rvb= 3.08%); type: functional
[6] = system: DU-145; experiment: Induction of cell cycle arrest in human DU-145 cells assessed as accumulation of cells at G2 phase at 40 uM incubated for 24 hrs by propidium iodide based flow cytometric analysis (Rvb= 17.52%); type: functional
[7] = system: CWR22R; experiment: Induction of cell cycle arrest in human 22Rv1 cells assessed as accumulation of cells at G1 phase at 40 uM incubated for 24 hrs by propidium iodide based flow cytometric analysis (Rvb= 55.28%); type: functional
[8] = system: DU-145; experiment: Induction of cell cycle arrest in human DU-145 cells assessed as accumulation of cells at S phase at 40 uM incubated for 24 hrs by propidium iodide based flow cytometric analysis (Rvb= 29.02%); type: functional
[9] = system: DU-145; experiment: Induction of apoptosis in human DU-145 cells assessed as apoptotis rate at 40 uM incubated for 24 hrs by Annexin V-FITC and PI staining based flow cytometry (Rvb= 4.36%); type: functional
[10] = system: DU-145; experiment: Antitumor activity against human DU-145 xenografted in BALB/c nude mouse assessed as tumor growth inhibition at 100 mg/kg,po qd for 21 days; type: functional, organism-based; details: time 21.0 day
[11] = biological target: T1, Dual specificity tyrosine-phosphorylation-regulated kinase 2; experiment: Inhibition of human GST-tagged DYRK2 expressed in Escherichia coli BL21 (DE3) using woodtide as substrate in presence of [gamma33-P]ATP incubated for 30 mins by Scintillation counter analysis

IC50 [1]: > 10000 nM
Compound: CC(C)(C)OC(=O)N1CCN(Cc2ccc(Nc3ncc(F)c(-c4ccc5scnc5c4)n3)nc2)CC1

IC50 [1]: > 10000 nM
Compound: COc1cnc(Nc2ccc(CN3CCN(C(=O)OC(C)(C)C)CC3)cn2)nc1-c1ccc2scnc2c1

IC50 [1]: 16 nM
Compound: CC(C)(C)OC(=O)N1CCN(C(=O)c2ccc(Nc3ncc(F)c(-c4ccc5scnc5c4)n3)cn2)CC1

The next lines start with the compound.

Compound: CNC(=O)c1ccc(N2C(=S)N(c3ccc(C#N)c(C(F)(F)F)c3)C(=O)C2(C)C)cc1F [ENZALUTAMIDE]
Activity [2]: 21.43% | Activity [3]: 56.68% | Activity [4]: 15.68% | Activity [5]: 5.85% | Activity [6]: 16.78% | Activity [7]: 62.89% | Activity [8]: 26.54% | Activity [9]: 8.01% | Activity [10]: Active

Compound: COc1cc(/C=C/C(=O)CC(=O)/C=C/c2ccc(O)c(OC)c2)ccc1O [CURCUMIN]
IC50 [11]: 2.5 nM

Compound: CC(C)(C)OC(=O)N1CCN(Cc2ccc(Nc3nccc(-c4ccc5scnc5c4)n3)nc2)CC1
IC50 [1]: > 10000 nM

Compound: Cc1cnc(Nc2ccc(CN3CCN(C(=O)OC(C)(C)C)CC3)cn2)nc1-c1ccc2scnc2c1
IC50 [1]: > 10000 nM

Compound: O=C(c1ccc(Nc2ncc(F)c(-c3ccc4scnc4c3)n2)nc1)N1CCN(C(=O)C2CC2)CC1
IC50 [1]: 33 nM
